Data as given in the NIST ThermoML archive (doi:10.1016/j.tca.2007.03.018).
Where “and” joins values, the source holds several entries; their conditions need not be identical. Equal entries are not always repeated.

Assay: molar heat capacity at saturation pressure
Settings: Crystal 3, Small (less than 1 g) adiabatic calorimetry

C1C2CC3CC1CC(C14CC5CC(CC(C5)C1)C4)(C2)C3 [1,1'-biadamantane]
Settings	molar heat capacity
5.12 K	0.3991 J/K/mol
5.48 K	0.4822 J/K/mol
5.83 K	0.5877 J/K/mol
6.16 K	0.685 J/K/mol
6.52 K	0.8082 J/K/mol
6.89 K	0.9715 J/K/mol
7.26 K	1.141 J/K/mol
7.65 K	1.358 J/K/mol
8.06 K	1.589 J/K/mol
8.49 K	1.895 J/K/mol
8.96 K	2.209 J/K/mol
9.44 K	2.572 J/K/mol
9.95 K	2.983 J/K/mol
10.48 K	3.464 J/K/mol
11.04 K	3.988 J/K/mol
11.61 K	4.561 J/K/mol
12.2 K	5.242 J/K/mol
12.83 K	5.943 J/K/mol
13.49 K	6.781 J/K/mol
14.18 K	7.626 J/K/mol
14.87 K	8.538 J/K/mol
15.63 K	9.556 J/K/mol
16.43 K	10.67 J/K/mol
17.24 K	11.86 J/K/mol
18.08 K	13.09 J/K/mol
18.95 K	14.44 J/K/mol
19.88 K	15.84 J/K/mol
20.83 K	17.31 J/K/mol
21.82 K	18.74 J/K/mol
22.89 K	20.35 J/K/mol
22.95 K	20.46 J/K/mol
24.01 K	21.99 J/K/mol
24.06 K	22.16 J/K/mol
25.22 K	23.79 J/K/mol
26.48 K	25.74 J/K/mol
27.75 K	27.57 J/K/mol
29.1 K	29.32 J/K/mol
30.54 K	31.4 J/K/mol
31.99 K	33.13 J/K/mol
33.46 K	34.98 J/K/mol
34.99 K	36.71 J/K/mol
36.59 K	38.54 J/K/mol
38.25 K	40.44 J/K/mol
40.03 K	42.38 J/K/mol
41.9 K	44.38 J/K/mol
43.85 K	46.11 J/K/mol
45.82 K	48.13 J/K/mol
47.8 K	49.99 J/K/mol
49.9 K	51.98 J/K/mol
52.16 K	54.02 J/K/mol
56.79 K	58.28 J/K/mol
59.06 K	60 J/K/mol
61.48 K	62.21 J/K/mol
64.1 K	64.5 J/K/mol
66.87 K	66.86 J/K/mol
69.6 K	69.08 J/K/mol
72.27 K	71.72 J/K/mol
74.94 K	73.93 J/K/mol
77.75 K	76.41 J/K/mol
78.69 K	77.62 J/K/mol
80.6 K	79.18 J/K/mol
81.1 K	79.65 J/K/mol
83.35 K	81.61 J/K/mol
83.41 K	81.57 J/K/mol
85.61 K	83.56 J/K/mol
86.26 K	84.36 J/K/mol
87.88 K	85.72 J/K/mol
89.1 K	86.73 J/K/mol
90.15 K	87.8 J/K/mol
91.92 K	89.55 J/K/mol
92.41 K	89.88 J/K/mol
94.69 K	91.96 J/K/mol
96.97 K	94.12 J/K/mol
99.26 K	96.28 J/K/mol
101.55 K	98.53 J/K/mol
103.84 K	100.69 J/K/mol
106.12 K	102.85 J/K/mol
108.41 K	105.09 J/K/mol
110.71 K	107.17 J/K/mol
113 K	109.58 J/K/mol
115.31 K	111.83 J/K/mol
117.61 K	113.99 J/K/mol
119.9 K	116.15 J/K/mol
122.2 K	118.56 J/K/mol
124.49 K	120.81 J/K/mol
126.77 K	123.05 J/K/mol
129.06 K	125.38 J/K/mol
130.26 K	126.5 J/K/mol
131.34 K	127.63 J/K/mol
132.68 K	129 J/K/mol
134.96 K	131.3 J/K/mol
137.24 K	133.6 J/K/mol
139.51 K	135.9 J/K/mol
141.78 K	138.2 J/K/mol
144.05 K	140.5 J/K/mol
146.32 K	142.9 J/K/mol
148.59 K	145.3 J/K/mol
150.84 K	147.7 J/K/mol
153.1 K	150.1 J/K/mol
155.35 K	152.4 J/K/mol
157.59 K	154.7 J/K/mol
159.84 K	157.1 J/K/mol
162.08 K	159.6 J/K/mol
164.32 K	161.9 J/K/mol
166.57 K	164.4 J/K/mol
168.8 K	166.9 J/K/mol
171.03 K	169.3 J/K/mol
173.25 K	171.7 J/K/mol
175.46 K	174.2 J/K/mol
177.68 K	176.7 J/K/mol
179.89 K	179.2 J/K/mol
182.09 K	181.7 J/K/mol
184.28 K	184.2 J/K/mol
186.47 K	186.7 J/K/mol
188.65 K	189.2 J/K/mol
190.83 K	191.6 J/K/mol
193 K	194.2 J/K/mol
195.17 K	196.7 J/K/mol
197.33 K	199.3 J/K/mol
199.49 K	201.8 J/K/mol
201.65 K	204.5 J/K/mol
203.8 K	207.1 J/K/mol
205.94 K	209.8 J/K/mol
208.08 K	212.4 J/K/mol
210.21 K	215 J/K/mol
212.34 K	217.7 J/K/mol
214.46 K	220.3 J/K/mol
216.58 K	222.9 J/K/mol
217.18 K	223.7 J/K/mol
218.7 K	225.6 J/K/mol
219.55 K	226.6 J/K/mol
220.81 K	228.3 J/K/mol
221.81 K	229.5 J/K/mol
222.91 K	231 J/K/mol
224.05 K	232.4 J/K/mol
225.01 K	233.7 J/K/mol
226.29 K	235.3 J/K/mol
228.52 K	238.3 J/K/mol
230.75 K	241.1 J/K/mol
232.97 K	244 J/K/mol
235.18 K	246.9 J/K/mol
237.39 K	249.9 J/K/mol
239.59 K	252.9 J/K/mol
241.79 K	255.7 J/K/mol
243.98 K	258.7 J/K/mol
246.17 K	261.7 J/K/mol
248.35 K	264.6 J/K/mol
250.52 K	267.6 J/K/mol
252.71 K	270.6 J/K/mol
254.88 K	273.6 J/K/mol
257.04 K	276.7 J/K/mol
259.19 K	279.8 J/K/mol
261.34 K	282.9 J/K/mol
263.48 K	286 J/K/mol
265.62 K	289.2 J/K/mol
267.75 K	292 J/K/mol
269.87 K	295.1 J/K/mol
271.98 K	298.2 J/K/mol
274.09 K	301.2 J/K/mol
275.74 K	303.3 J/K/mol
276.2 K	304.1 J/K/mol
277.54 K	306 J/K/mol
278.29 K	307.1 J/K/mol
279.26 K	308.4 J/K/mol
280.39 K	310.1 J/K/mol
280.98 K	311 J/K/mol
282.47 K	313.1 J/K/mol
282.68 K	313.6 J/K/mol
284.38 K	316 J/K/mol
284.56 K	316 J/K/mol
286.08 K	318.6 J/K/mol
286.65 K	319.1 J/K/mol
287.78 K	321.1 J/K/mol
288.72 K	322.2 J/K/mol
289.47 K	323.6 J/K/mol
290.79 K	325 J/K/mol
291.16 K	325.9 J/K/mol
292.84 K	328 J/K/mol and 328.3 J/K/mol
294.52 K	330.7 J/K/mol
294.89 K	331.1 J/K/mol
296.19 K	333.2 J/K/mol
296.94 K	334 J/K/mol
297.87 K	335.4 J/K/mol
298.98 K	336.9 J/K/mol
299.54 K	338 J/K/mol
301.01 K	339.9 J/K/mol
301.2 K	340.6 J/K/mol
302.86 K	342.9 J/K/mol
303.04 K	342.7 J/K/mol
304.51 K	345.2 J/K/mol
305.05 K	345.7 J/K/mol
